Assay results from patent publication US5045222A, “Use of triacylated ethanolamines as liquid, water-miscible peroxide activators” (Hoechst Aktiengesellschaft, priority 1988, dated 1991).

Experiments:
[1] = background discussion; cited from earlier work
[2] = Determination of the water solubility of activators; type: physicochemical; settings: for Water solubility / miscibility with water (words): in words, temperature not stated
Description: The water solubility of N,N,O-triacetylethanolamine (TAEA) and ethylidene benzoate acetate (EBA) was determined by known methods.

[3] = Perhydrolysis rate of dissolved activator (titration of total active oxygen and peracid); settings: for time required for 90% conversion of activator: predissolved activator; for Perhydrolysis rate / release of peracid: in words, with hydrogen peroxide or percompounds
Description: The experimental determination of the perhydrolysis rate of the activators TAEA (triacetylethanolamine), TAED (tetraacetylethylenediamine) and isonobs (sodium isononanoyloxybenzenesulfonate) was carried out under wash conditions in a 2 1 beaker in a thermostat. An electrical stirrer ensured uniform stirring of a 2 percent strength solution of an IEC standard detergent composition, to which perborate had been added together with 20 ml of a cherry juice solution as a bleachable stain.
The activators were predissolved in a little water and added to the abovementioned temperature controlled washing liquor. At each set time interval (1-5 minutes) a 50 ml sample was removed and titrated for total active oxygen and peracid.
pH dependence of perhydrolysis of dissolved bleach activators at 22° C.; time required [min] for 90% conversion of activator: […]

[4] = Wash tests in Launder-O-meter at 60° C., tea stain
[5] = Washing tests in Launder-O-meter at room temperature, tea stain; settings: 25° C.

CC(=O)OC(C)OC(=O)c1ccccc1 (stereo not shown) [EBA, ethylidene benzoate acetate]
Solubility in water (words, prior-art activator) [1]: limited solubility in water
Water solubility ([2]; 23° C.): 700 µg/mL
Water solubility ([2]; 37° C.): 800 µg/mL

CC(=O)N(CCN(C(C)=O)C(C)=O)C(C)=O [TAED, tetraacetylethylenediamine]
time required for 90% conversion of activator ([3]; pH 9, 22° C.): 15 min
time required for 90% conversion of activator ([3]; pH 10, 22° C.): 7 min
time required for 90% conversion of activator ([3]; pH 11, 22° C.): 1 min

CC(CC(=O)Oc1ccc(S(=O)(=O)[O-])cc1)CC(C)(C)C.[Na+] (stereo not shown) [Isonobs, sodium isononanoyloxybenzenesulfonate]
time required for 90% conversion of activator ([3]; pH 9, 22° C.): > 30 min
time required for 90% conversion of activator ([3]; pH 10, 22° C.): 11 min
time required for 90% conversion of activator ([3]; pH 11, 22° C.): 1.5 min

CC(=O)OCCN(C(C)=O)C(C)=O [TAEA, N,N,O-triacetylethanolamine]
Water solubility (infinite, unit not given) ([2]; 23° C.): .infin.
Water solubility (infinite, unit not given) ([2]; 37° C.): .infin.
Water solubility / miscibility with water (words) [2]: complete miscibility of the compound with water
Water solubility / miscibility with water (words) ([2]; listed as triacetylethanolamine): has the best water solubility and is miscible with water in any proportion
bleaching performance ([4]; tea and red wine stains): superior in bleaching performance to previously known EDA and to non-liquid DALEA
Perhydrolysis rate / release of peracid [3]: releases one mole of peracetic acid very rapidly, in fact as rapidly as predissolved TAED
Perhydrolysis rate / release of peracid ([3]; listed as Triacetylethanolamine (TAEA)): readily reacts in aqueous solution with hydrogen peroxide or inorganic persalts to form peracetic acid
time required for 90% conversion of activator ([3]; pH 9, 22° C.): 12 min
time required for 90% conversion of activator ([3]; pH 10, 22° C.): 7 min
time required for 90% conversion of activator ([3]; pH 11, 22° C.): 1 min
bleaching effect ([5]; tea and red wine stains): superior bleaching effect

sodium perborate [PB]
Reflectance values ([4]; tea stain, 30 minutes, 25 mg active oxygen per liter, 1.5 g IEC basic washing powder per liter): 62.9
Reflectance ([5]; tea stain, 15 minutes, 3% activator and 10% sodium perborate): 52.8
